This is an account of results in ChEMBL document CHEMBL4396913, “Synthesis and biological evaluation of hybrid quinolone-based quaternary ammonium antibacterial agents” (Eur J Med Chem, 2019).

For series [1], the system named is Proteus vulgaris. The series is described as follows: Antibacterial activity against Proteus vulgaris NCTC 4635 cultured in MH medium assessed as reduction in bacterial growth incubated for 48 hrs by microbroth dilution method. The settings on record: NCTC 4635, 48 h. The class given is functional.
For series [2], the system named is Staphylococcus aureus. The series is described as follows: Bactericidal activity against Staphylococcus aureus ATCC 6538 cultured in MH medium assessed as reduction in bacterial survival incubated for 48 hrs by microbroth dilution method. The settings on record: ATCC 6538, 48 h. Type of series: functional.
In series [3] the test system is Proteus vulgaris. Kind of series: Bactericidal activity against Proteus vulgaris NCTC 4635 cultured in MH medium assessed as reduction in bacterial survival incubated for 48 hrs by microbroth dilution method. Type of series: functional. As to conditions: NCTC 4635, 48 h. (Broth dilution looks for growth in wells or tubes with falling amounts of substance.)
Series [4] concerns Bacillus spizizenii. Kind of series: Antibacterial activity against Bacillus subtilis ATCC 6633 cultured in MH medium assessed as reduction in bacterial growth incubated for 48 hrs by microbroth dilution method. The class given is functional. As to conditions: ATCC 6633, 48 h.
Series [5] concerns HEK293. The series is described as follows: Cytotoxicity against human HEK293 cells assessed as changes in cell morphology upto 20 uM incubated for 72 hrs by MTT assay. The class given is cell-based. The settings on record: hek293, 72 h.
Series [6] concerns Staphylococcus aureus. Kind of series: Bactericidal activity against methicillin resistant Staphylococcus aureus 6347 cultured in MH medium assessed as reduction in bacterial survival incubated for 48 hrs by microbroth dilution method. The class given is functional. The settings on record: Staphylococcus aureus, 6347, 48 h.
For series [7], the system named is Staphylococcus epidermidis. Kind of series: Antibacterial activity against methicillin resistant Staphylococcus epidermidis ATCC 13199 cultured in MH medium assessed as reduction in bacterial growth incubated for 48 hrs by microbroth dilution method. The class given is functional. As to conditions: ATCC 13199, 48 h.
Series [8] has as its system Staphylococcus aureus. Kind of series: Antibacterial activity against methicillin resistant Staphylococcus aureus N315 cultured in MH medium assessed as reduction in bacterial growth incubated for 48 hrs by microbroth dilution method. The class given is functional. The settings on record: N315, 48 h.
Series [9] concerns Pseudomonas aeruginosa. The series is described as follows: Bactericidal activity against Pseudomonas aeruginosa ATCC 9027 cultured in MH medium assessed as reduction in bacterial survival incubated for 48 hrs by microbroth dilution method. Type of series: functional. As to conditions: ATCC 9027, 48 h.
The subject of series [10] is Pseudomonas aeruginosa. The series is described as follows: Antibacterial activity against Pseudomonas aeruginosa ATCC 9027 cultured in MH medium assessed as reduction in bacterial growth incubated for 48 hrs by microbroth dilution method. Type of series: functional. The settings on record: ATCC 9027, 48 h.
Series [11] concerns Staphylococcus epidermidis. The series is described as follows: Antibacterial activity against Staphylococcus epidermidis ATCC 14990 cultured in MH medium assessed as reduction in bacterial growth incubated for 48 hrs by microbroth dilution method. The settings on record: ATCC 14990, 48 h. The class given is functional.
Series [12] has as its system Serratia marcescens. Kind of series: Antibacterial activity against Serratia marcescens ATCC 12795 cultured in MH medium assessed as reduction in bacterial growth incubated for 48 hrs by microbroth dilution method. The class given is functional. The settings on record: ATCC 12795, 48 h.
Series [13] concerns Serratia marcescens. Kind of series: Bactericidal activity against Serratia marcescens ATCC 12795 cultured in MH medium assessed as reduction in bacterial survival incubated for 48 hrs by microbroth dilution method. Type of series: functional. The settings on record: ATCC 12795, 48 h.
For a further series, the system named is Streptococcus pneumoniae. The series is described as follows: Antibacterial activity against Streptococcus pneumoniae cultured in MH medium assessed as reduction in bacterial growth incubated for 48 hrs by microbroth dilution method. The class given is functional.
Series [14] deals with Bacillus spizizenii. The series is described as follows: Bactericidal activity against Bacillus subtilis ATCC 6633 cultured in MH medium assessed as reduction in bacterial survival incubated for 48 hrs by microbroth dilution method. Type of series: functional. The settings on record: ATCC 6633, 48 h.
Series [15] deals with Staphylococcus epidermidis. Kind of series: Bactericidal activity against methicillin resistant Staphylococcus epidermidis ATCC 13199 cultured in MH medium assessed as reduction in bacterial survival incubated for 48 hrs by microbroth dilution method. The class given is functional. The settings on record: ATCC 13199, 48 h.
In series [16] the test system is Staphylococcus aureus. The series is described as follows: Antibacterial activity against Staphylococcus aureus ATCC 6538 cultured in MH medium assessed as reduction in bacterial growth incubated for 48 hrs by microbroth dilution method. Type of series: functional. The settings on record: ATCC 6538, 48 h.
A short description of series [17]: Lipophilicity, log k of the compound at 100 ug/ml by micellar electrokinetic chromatography. The class given is physicochemical.
Series [18] relates to Staphylococcus epidermidis. Kind of series: Bactericidal activity against Staphylococcus epidermidis ATCC 14990 cultured in MH medium assessed as reduction in bacterial survival incubated for 48 hrs by microbroth dilution method. The class given is functional. As to conditions: ATCC 14990, 48 h.
The subject of a further series is Enterococcus hirae. Kind of series: Antibacterial activity against Enterococcus hirae ATCC 1052 cultured in BHI medium assessed as reduction in bacterial growth incubated for 48 hrs by microbroth dilution method. The class given is functional. The settings on record: ATCC 1052, 48 h.
Series [19] has as its system Staphylococcus aureus. Kind of series: Bactericidal activity against methicillin resistant Staphylococcus aureus N315 cultured in MH medium assessed as reduction in bacterial survival incubated for 48 hrs by microbroth dilution method. The settings on record: N315, 48 h. The class given is functional.
The subject of series [20] is Staphylococcus aureus. The series is described as follows: Antibacterial activity against methicillin resistant Staphylococcus aureus 6347 cultured in MH medium assessed as reduction in bacterial growth incubated for 48 hrs by microbroth dilution method. Type of series: functional. The settings on record: Staphylococcus aureus, 6347, 48 h.
Series [21] deals with Escherichia coli. Kind of series: Bactericidal activity against Escherichia coli ATCC 8739 cultured in MH medium assessed as reduction in bacterial survival incubated for 48 hrs by microbroth dilution method. Type of series: functional. The settings on record: ATCC 8739, 48 h.
In series [22] the test system is Escherichia coli. Kind of series: Antibacterial activity against Escherichia coli ATCC 8739 cultured in MH medium assessed as reduction in bacterial growth incubated for 48 hrs by microbroth dilution method. Type of series: functional. The settings on record: ATCC 8739, 48 h.
For series [23], the system named is HEK293. The series is described as follows: Cytotoxicity against human HEK293 cells assessed as cell viability upto 20 uM incubated for 72 hrs by MTT assay. The class given is cell-based. The settings on record: hek293, 72 h. (Formazan colour is commonly taken as a measure of viable cells.)

Broadly, the MIC is the least concentration at which growth counts as inhibited. The term MBC denotes the smallest concentration meeting the test's criterion for killing.

Regarding `CC1=CC(C)=C(C(=O)O)C2=N[N+]3(CN12)[C@H](C)CN(c1c(F)c(N)c2c(=O)c(C(=O)O)cn(C4CC4)c2c1F)C[C@@H]3C.[Cl-]` (stereo partly specified), the minimum inhibitory concentration (MIC) in the series on Proteus vulgaris [1] is 1 µg/mL; in the series on Bacillus spizizenii [4] it was 2 µg/mL; in series [7], 2 µg/mL; in the series on Staphylococcus aureus [8], 8 µg/mL; in the series with Pseudomonas aeruginosa [10], 32 µg/mL; in [11], 4 µg/mL. In addition, the minimal inhibitory concentration (MIC) in the series on Serratia marcescens [12] is 32 µg/mL; in the series with Streptococcus pneumoniae, above 512 µg/mL; in the series on Staphylococcus aureus [16], 8 µg/mL; in the series with Enterococcus hirae, above 512 µg/mL; in the series on Staphylococcus aureus [20], 4 µg/mL; in the series with Escherichia coli [22], 4 µg/mL. Also, the minimum bactericidal concentration (MBC) in the series on Staphylococcus aureus [2] was 16 µg/mL; in the series with Proteus vulgaris [3], 2 µg/mL; with Staphylococcus aureus [6], 8 µg/mL; in the series on Pseudomonas aeruginosa [9] it was above 512 µg/mL; in the series on Serratia marcescens [13], 32 µg/mL; in the series on Bacillus spizizenii [14], 2 µg/mL. Moreover, the MBC was determined as 4 µg/mL in [15], 16 µg/mL in series [18], 8 µg/mL with Staphylococcus aureus [19] and 4 µg/mL in the series with Escherichia coli [21]. The Activity result with HEK293 [5] and in the series on HEK293 [23] was “Non-Toxic” throughout. The “log K” value in series [17] is -0.2606.

As for `CCn1cc(C(=O)O)c(=O)c2cnc(N3CC[N+]4(CC3)CN3C(C)=CC(C)=C(C(=O)O)C3=N4)nc21.[Cl-]`, the MIC in the series with Proteus vulgaris [1] was 256 µg/mL; with Bacillus spizizenii [4], above 512 µg/mL; in series [7], above 512 µg/mL; with Staphylococcus aureus [8], above 512 µg/mL; in the series on Pseudomonas aeruginosa [10], above 512 µg/mL; in series [11] it was above 512 µg/mL. The MIC in the series on Serratia marcescens [12], in the series with Streptococcus pneumoniae, in the series on Staphylococcus aureus [16], with Enterococcus hirae, in the series on Staphylococcus aureus [20] and in the series on Escherichia coli [22] was above 512 µg/mL throughout. Further, the MBC in the series on Proteus vulgaris [3] is above 512 µg/mL. Besides, the Activity result with HEK293 [5] and with HEK293 [23] was “Non-Toxic” in each case. Moreover, the “log K” value in series [17] is -0.5725.

On to `CCn1cc(C(=O)O)c(=O)c2cc(F)c(N3CC[N+]4(CC3)CN3C(=N4)C(C(=O)O)=Cc4ccccc43)cc21.[Cl-]`, for which the MIC in the series on Proteus vulgaris [1] was found to be 2 µg/mL; with Bacillus spizizenii [4] it was 16 µg/mL; in [7] it was 64 µg/mL; in the series with Staphylococcus aureus [8], 64 µg/mL; with Pseudomonas aeruginosa [10] it was 64 µg/mL; in [11], 32 µg/mL. Also, the MIC in the series with Serratia marcescens [12] was 32 µg/mL; in the series on Streptococcus pneumoniae, above 512 µg/mL; in the series with Staphylococcus aureus [16], 64 µg/mL; in the series with Enterococcus hirae, above 512 µg/mL; in the series on Staphylococcus aureus [20] it was 32 µg/mL; in the series on Escherichia coli [22], 4 µg/mL. The MBC in the series on Staphylococcus aureus [2] was determined as 64 µg/mL; in the series on Proteus vulgaris [3], 2 µg/mL; in the series with Staphylococcus aureus [6] it was 32 µg/mL; in the series with Pseudomonas aeruginosa [9] it was 64 µg/mL; with Serratia marcescens [13] it was 32 µg/mL; with Bacillus spizizenii [14], 16 µg/mL. Further, the MBC in series [15] came to 64 µg/mL; in series [18], 32 µg/mL; in the series with Staphylococcus aureus [19] it was 64 µg/mL; in the series on Escherichia coli [21], 4 µg/mL. For the same molecule, the Activity result in the series on HEK293 [5] and in the series on HEK293 [23] was “Non-Toxic” in each case. Besides, in [17], the “log K” value is given as -0.1044.
